Legend:
AAK1 (human) = AAK1 (human) (UniProt Q2M2I8); assay: KINOMEscan competition binding; details: compound 10.0 µM
ACVR2B (human) = ACVR2B (human) (UniProt Q13705); assay: KINOMEscan competition binding; details: compound 10.0 µM
BMP2K (human) = BMP2K (human) (UniProt Q9NSY1); assay: KINOMEscan competition binding; details: compound 10.0 µM
MINK1 (human) = MINK1 (human) (UniProt Q8N4C8); assay: KINOMEscan competition binding; details: compound 10.0 µM
[1] = test system: FLT3 (human), P36888 [N841I]; assay: KINOMEscan competition binding; details: compound 10.0 µM
IRAK3 (human) = IRAK3 (human) (UniProt Q9Y616); assay: KINOMEscan competition binding; details: compound 10.0 µM
Chain of IRAK3 (human) (Q9Y616 whole entry, looked up): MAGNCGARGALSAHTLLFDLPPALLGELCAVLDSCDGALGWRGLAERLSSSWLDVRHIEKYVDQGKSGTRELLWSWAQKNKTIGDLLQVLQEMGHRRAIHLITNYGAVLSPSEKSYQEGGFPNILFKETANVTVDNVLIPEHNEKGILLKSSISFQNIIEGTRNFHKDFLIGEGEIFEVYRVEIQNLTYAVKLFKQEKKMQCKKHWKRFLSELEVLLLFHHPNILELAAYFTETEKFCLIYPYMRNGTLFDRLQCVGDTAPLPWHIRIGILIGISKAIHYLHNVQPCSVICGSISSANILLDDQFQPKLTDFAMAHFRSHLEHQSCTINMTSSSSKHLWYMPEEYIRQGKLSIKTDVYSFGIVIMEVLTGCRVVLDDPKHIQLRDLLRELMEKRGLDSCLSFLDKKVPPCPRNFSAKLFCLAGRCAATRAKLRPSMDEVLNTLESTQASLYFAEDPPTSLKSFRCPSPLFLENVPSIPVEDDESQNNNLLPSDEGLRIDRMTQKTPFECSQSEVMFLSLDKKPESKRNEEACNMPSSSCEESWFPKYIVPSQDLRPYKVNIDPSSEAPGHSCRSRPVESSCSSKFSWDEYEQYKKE

TGFBR2 (human) = TGFBR2 (human) (UniProt P37173); assay: KINOMEscan competition binding; details: compound 10.0 µM
RIOK1 (human) = RIOK1 (human) (UniProt Q9BRS2); assay: KINOMEscan competition binding; details: compound 10.0 µM
CDK7 (human) = CDK7 (human) (UniProt P50613); assay: KINOMEscan competition binding; details: compound 10.0 µM
[2] = test system: FLT3 (human), P36888 [ITD]; assay: KINOMEscan competition binding; details: compound 10.0 µM
SRPK3 (human) = SRPK3 (human) (UniProt Q9UPE1); assay: KINOMEscan competition binding; details: compound 10.0 µM
[3] = target: TYK2 JH2 pseudokinase (human) (UniProt P29597); assay: KINOMEscan competition binding; details: compound 10.0 µM
ACVR2A (human) = ACVR2A (human) (UniProt P27037); assay: KINOMEscan competition binding; details: compound 10.0 µM
GAK (human) = GAK (human) (UniProt O14976); assay: KINOMEscan competition binding; details: compound 10.0 µM
[4] = test system: RET (human), P07949 [V804M]; assay: KINOMEscan competition binding; details: compound 10.0 µM
HIPK1 (human) = HIPK1 (human) (UniProt Q86Z02); assay: KINOMEscan competition binding; details: compound 10.0 µM
MAP4K2 (human) = MAP4K2 (human) (UniProt Q12851); assay: KINOMEscan competition binding; details: compound 10.0 µM
MYLK4 (human) = MYLK4 (human) (UniProt Q86YV6); assay: KINOMEscan competition binding; details: compound 10.0 µM
PIP4K2B (human) = PIP4K2B (human) (UniProt P78356); assay: KINOMEscan competition binding; details: compound 10.0 µM
[5] = test system: FLT3 (human), P36888 [D835Y]; assay: KINOMEscan competition binding; details: compound 10.0 µM
MYLK (human) = MYLK (human) (UniProt Q15746); assay: KINOMEscan competition binding; details: compound 10.0 µM
DAPK1 (human) = DAPK1 (human) (UniProt P53355); assay: KINOMEscan competition binding; details: compound 10.0 µM
MAP3K7 (human) = MAP3K7 (human) (UniProt O43318); assay: KINOMEscan competition binding; details: compound 10.0 µM
PIM2 (human) [6] = target: PIM2 (human) (UniProt Q9P1W9); assay: KINOMEscan competition binding; details: compound 10.0 µM
Chain of PIM2 (human) (Q9P1W9 whole entry, looked up): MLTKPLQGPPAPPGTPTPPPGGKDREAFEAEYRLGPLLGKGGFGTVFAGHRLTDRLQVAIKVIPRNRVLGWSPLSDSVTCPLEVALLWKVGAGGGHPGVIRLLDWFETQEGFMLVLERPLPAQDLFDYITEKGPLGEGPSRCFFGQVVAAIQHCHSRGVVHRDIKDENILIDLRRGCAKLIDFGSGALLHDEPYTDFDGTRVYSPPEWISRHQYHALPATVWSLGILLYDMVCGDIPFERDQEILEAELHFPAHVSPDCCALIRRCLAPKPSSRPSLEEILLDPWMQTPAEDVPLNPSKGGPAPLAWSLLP

STK17A (human) = STK17A (human) (UniProt Q9UEE5); assay: KINOMEscan competition binding; details: compound 10.0 µM
PLK3 (human) = PLK3 (human) (UniProt Q9H4B4); assay: KINOMEscan competition binding; details: compound 10.0 µM
Chain of PLK3 (human) (Q9H4B4 whole entry, looked up): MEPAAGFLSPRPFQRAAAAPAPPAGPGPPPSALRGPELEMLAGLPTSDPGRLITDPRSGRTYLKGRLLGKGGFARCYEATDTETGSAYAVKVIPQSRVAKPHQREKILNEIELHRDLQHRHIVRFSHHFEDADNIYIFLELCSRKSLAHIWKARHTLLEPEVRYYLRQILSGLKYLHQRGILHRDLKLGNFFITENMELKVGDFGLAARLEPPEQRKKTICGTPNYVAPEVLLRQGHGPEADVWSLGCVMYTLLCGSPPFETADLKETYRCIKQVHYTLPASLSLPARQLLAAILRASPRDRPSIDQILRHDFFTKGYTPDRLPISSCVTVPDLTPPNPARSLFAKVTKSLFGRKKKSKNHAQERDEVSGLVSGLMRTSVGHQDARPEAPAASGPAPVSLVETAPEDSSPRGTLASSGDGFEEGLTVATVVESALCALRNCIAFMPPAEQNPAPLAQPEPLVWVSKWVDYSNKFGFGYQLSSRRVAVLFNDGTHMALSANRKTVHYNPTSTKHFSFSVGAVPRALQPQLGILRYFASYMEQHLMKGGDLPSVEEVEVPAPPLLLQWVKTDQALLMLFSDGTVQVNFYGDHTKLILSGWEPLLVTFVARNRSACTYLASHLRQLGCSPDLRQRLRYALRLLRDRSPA

[7] = test system: EIF2AK4 KD2 (human), Q9P2K8 [S808G]; assay: KINOMEscan competition binding; details: compound 10.0 µM
RIPK2 (human) = RIPK2 (human) (UniProt O43353); assay: KINOMEscan competition binding; details: compound 10.0 µM
DAPK2 (human) = DAPK2 (human) (UniProt Q9UIK4); assay: KINOMEscan competition binding; details: compound 10.0 µM
[8] = test system: FLT3 (human), P36888 [D835H]; assay: KINOMEscan competition binding; details: compound 10.0 µM
CLK2 (human) = CLK2 (human) (UniProt P49760); assay: KINOMEscan competition binding; details: compound 10.0 µM
Chain of CLK2 (human) (P49760 whole entry, looked up): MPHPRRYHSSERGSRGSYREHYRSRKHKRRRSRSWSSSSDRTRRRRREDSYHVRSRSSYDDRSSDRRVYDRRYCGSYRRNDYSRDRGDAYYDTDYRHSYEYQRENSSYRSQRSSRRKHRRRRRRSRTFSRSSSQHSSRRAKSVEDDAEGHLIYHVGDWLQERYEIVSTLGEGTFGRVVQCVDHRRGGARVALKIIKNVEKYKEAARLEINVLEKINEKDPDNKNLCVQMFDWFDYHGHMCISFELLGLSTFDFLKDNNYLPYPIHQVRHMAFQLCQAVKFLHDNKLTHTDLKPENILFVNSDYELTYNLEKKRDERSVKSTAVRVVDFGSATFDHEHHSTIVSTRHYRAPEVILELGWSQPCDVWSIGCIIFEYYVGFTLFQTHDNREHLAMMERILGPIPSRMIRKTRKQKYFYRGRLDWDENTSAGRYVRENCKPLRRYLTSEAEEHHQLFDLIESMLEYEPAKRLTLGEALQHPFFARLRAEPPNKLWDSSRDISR

CLK1 (human) = CLK1 (human) (UniProt P49759); assay: KINOMEscan competition binding; details: compound 10.0 µM
PIP5K1A (human) = PIP5K1A (human) (UniProt Q99755); assay: KINOMEscan competition binding; details: compound 10.0 µM
CLK4 (human) = CLK4 (human) (UniProt Q9HAZ1); assay: KINOMEscan competition binding; details: compound 10.0 µM
Chain of CLK4 (human) (Q9HAZ1 whole entry, looked up): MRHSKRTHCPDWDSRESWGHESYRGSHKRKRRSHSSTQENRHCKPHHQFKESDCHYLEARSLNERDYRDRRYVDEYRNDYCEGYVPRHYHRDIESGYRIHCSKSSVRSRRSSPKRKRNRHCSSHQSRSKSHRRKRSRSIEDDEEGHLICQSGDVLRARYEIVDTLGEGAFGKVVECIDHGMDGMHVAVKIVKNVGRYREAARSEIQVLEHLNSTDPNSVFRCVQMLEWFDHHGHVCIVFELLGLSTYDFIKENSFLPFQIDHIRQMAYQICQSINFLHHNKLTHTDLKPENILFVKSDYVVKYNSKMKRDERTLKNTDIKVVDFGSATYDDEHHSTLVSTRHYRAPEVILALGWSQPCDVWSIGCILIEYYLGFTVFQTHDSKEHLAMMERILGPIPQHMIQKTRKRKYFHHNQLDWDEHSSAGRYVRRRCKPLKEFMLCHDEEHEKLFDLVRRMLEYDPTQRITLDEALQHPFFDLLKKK

TAOK1 (human) = TAOK1 (human) (UniProt Q7L7X3); assay: KINOMEscan competition binding; details: compound 10.0 µM
PIM3 (human) = PIM3 (human) (UniProt Q86V86); assay: KINOMEscan competition binding; details: compound 10.0 µM
[9] = target: JAK1 JH2 pseudokinase (human) (UniProt P23458); assay: KINOMEscan competition binding; details: compound 10.0 µM
GSK3A (human) = GSK3A (human) (UniProt P49840); assay: KINOMEscan competition binding; details: compound 10.0 µM
MAP2K4 (human) = MAP2K4 (human) (UniProt P45985); assay: KINOMEscan competition binding; details: compound 10.0 µM
STK17B (human) = STK17B (human) (UniProt O94768); assay: KINOMEscan competition binding; details: compound 10.0 µM
CAMKK1 (human) = CAMKK1 (human) (UniProt Q8N5S9); assay: KINOMEscan competition binding; details: compound 10.0 µM
Chain of CAMKK1 (human) (Q8N5S9 whole entry, looked up): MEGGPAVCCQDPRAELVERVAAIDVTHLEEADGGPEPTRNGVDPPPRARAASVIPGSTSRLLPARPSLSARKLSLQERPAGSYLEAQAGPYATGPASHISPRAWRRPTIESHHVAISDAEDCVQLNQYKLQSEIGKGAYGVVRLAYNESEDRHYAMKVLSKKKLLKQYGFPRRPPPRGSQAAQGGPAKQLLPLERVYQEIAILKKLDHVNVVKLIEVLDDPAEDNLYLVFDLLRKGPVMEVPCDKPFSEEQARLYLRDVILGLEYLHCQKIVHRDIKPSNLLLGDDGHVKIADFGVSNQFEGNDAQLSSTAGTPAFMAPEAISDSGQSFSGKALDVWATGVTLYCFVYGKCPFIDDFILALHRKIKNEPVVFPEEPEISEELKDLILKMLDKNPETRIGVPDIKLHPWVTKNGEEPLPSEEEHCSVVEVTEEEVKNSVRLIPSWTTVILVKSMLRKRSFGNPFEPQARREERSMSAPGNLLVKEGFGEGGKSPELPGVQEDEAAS

RIOK2 (human) = RIOK2 (human) (UniProt Q9BVS4); assay: KINOMEscan competition binding; details: compound 10.0 µM
CSNK2A2 (human) = CSNK2A2 (human) (UniProt P19784); assay: KINOMEscan competition binding; details: compound 10.0 µM
TTK (human) = TTK (human) (UniProt P33981); assay: KINOMEscan competition binding; details: compound 10.0 µM
Chain of TTK (human) (P33981 whole entry, looked up): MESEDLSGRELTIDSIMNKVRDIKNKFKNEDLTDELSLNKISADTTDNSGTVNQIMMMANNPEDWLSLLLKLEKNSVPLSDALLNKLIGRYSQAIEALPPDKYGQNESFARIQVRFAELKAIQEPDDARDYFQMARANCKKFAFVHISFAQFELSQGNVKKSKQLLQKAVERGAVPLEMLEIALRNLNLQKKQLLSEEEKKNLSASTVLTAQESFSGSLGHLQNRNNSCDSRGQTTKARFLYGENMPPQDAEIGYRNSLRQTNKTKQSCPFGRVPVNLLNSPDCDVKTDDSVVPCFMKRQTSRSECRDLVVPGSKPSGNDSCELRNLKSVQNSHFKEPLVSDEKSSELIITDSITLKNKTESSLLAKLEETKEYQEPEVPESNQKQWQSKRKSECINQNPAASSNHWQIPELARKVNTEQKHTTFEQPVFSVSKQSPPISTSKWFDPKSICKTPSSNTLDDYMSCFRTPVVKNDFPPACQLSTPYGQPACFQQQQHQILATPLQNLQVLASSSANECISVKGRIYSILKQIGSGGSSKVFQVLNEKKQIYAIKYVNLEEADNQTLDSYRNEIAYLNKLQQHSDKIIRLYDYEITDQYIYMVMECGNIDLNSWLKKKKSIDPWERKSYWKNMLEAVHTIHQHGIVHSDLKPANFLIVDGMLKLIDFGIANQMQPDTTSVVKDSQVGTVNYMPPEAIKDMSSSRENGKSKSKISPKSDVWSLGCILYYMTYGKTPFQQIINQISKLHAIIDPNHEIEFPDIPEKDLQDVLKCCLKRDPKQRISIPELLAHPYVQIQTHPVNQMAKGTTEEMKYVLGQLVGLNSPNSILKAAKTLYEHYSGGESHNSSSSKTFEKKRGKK

PIM1 (human) [10] = target: PIM1 (human) (UniProt P11309); assay: KINOMEscan competition binding; details: compound 10.0 µM
Chain of PIM1 (human) (P11309 whole entry, looked up): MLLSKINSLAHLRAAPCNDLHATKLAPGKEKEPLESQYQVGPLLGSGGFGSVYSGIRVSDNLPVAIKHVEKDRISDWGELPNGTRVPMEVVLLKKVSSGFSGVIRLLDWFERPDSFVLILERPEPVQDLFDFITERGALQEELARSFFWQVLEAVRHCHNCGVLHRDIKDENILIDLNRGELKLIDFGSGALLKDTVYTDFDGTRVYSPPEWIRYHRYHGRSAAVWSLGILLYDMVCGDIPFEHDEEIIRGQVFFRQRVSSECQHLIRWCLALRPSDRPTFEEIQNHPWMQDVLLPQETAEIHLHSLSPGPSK

PIM2 (human) [11] = target: PIM2 (human) (UniProt Q9P1W9); assay: SelectScreen, TR FRET
PIM1 (human) [12] = target: PIM1 (human) (UniProt P11309); assay: SelectScreen, TR FRET

Chain of ACVR2B (human) (Q13705 whole entry, looked up): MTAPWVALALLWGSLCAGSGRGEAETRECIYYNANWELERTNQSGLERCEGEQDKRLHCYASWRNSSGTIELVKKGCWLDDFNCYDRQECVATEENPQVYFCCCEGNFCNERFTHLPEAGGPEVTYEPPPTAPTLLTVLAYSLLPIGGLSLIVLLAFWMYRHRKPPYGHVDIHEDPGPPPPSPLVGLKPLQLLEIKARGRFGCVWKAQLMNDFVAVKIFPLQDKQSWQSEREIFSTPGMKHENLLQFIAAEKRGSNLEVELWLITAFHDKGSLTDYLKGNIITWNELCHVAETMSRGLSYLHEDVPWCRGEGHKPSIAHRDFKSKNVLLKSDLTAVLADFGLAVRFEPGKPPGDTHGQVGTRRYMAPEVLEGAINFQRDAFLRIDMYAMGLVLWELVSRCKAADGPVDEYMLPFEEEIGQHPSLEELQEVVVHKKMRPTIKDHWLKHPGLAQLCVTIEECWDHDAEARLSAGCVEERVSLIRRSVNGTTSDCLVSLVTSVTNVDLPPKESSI

Q: Which results are given for N=C1NC(=O)/C(=C/c2ccc(-c3cnc4ccccc4c3)o2)S1?
A: kinase still bound, per cent of control (AAK1 (human)): 6.3%; kinase still bound, per cent of control (ACVR2B (human)): 21%; kinase still bound, per cent of control (BMP2K (human)): 8%; kinase still bound, per cent of control (MINK1 (human)): 16%; kinase still bound, per cent of control [1]: 29%; kinase still bound, per cent of control (IRAK3 (human)): 24%; kinase still bound, per cent of control (TGFBR2 (human)): 9.2%; kinase still bound, per cent of control (RIOK1 (human)): 15%; kinase still bound, per cent of control (CDK7 (human)): 5.8%; kinase still bound, per cent of control [2]: 22%; kinase still bound, per cent of control (SRPK3 (human)): 22%; kinase still bound, per cent of control [3]: 1.1%; kinase still bound, per cent of control (ACVR2A (human)): 34%; kinase still bound, per cent of control (GAK (human)): 2.6%; kinase still bound, per cent of control [4]: 10%; kinase still bound, per cent of control (HIPK1 (human)): 0.1%; kinase still bound, per cent of control (MAP4K2 (human)): 20%; kinase still bound, per cent of control (MYLK4 (human)): 13%; kinase still bound, per cent of control (PIP4K2B (human)): 20%; kinase still bound, per cent of control [5]: 8.4%; kinase still bound, per cent of control (MYLK (human)): 24%; kinase still bound, per cent of control (DAPK1 (human)): 22%; kinase still bound, per cent of control (MAP3K7 (human)): 12%; kinase still bound, per cent of control (PIM2 (human) [6]): 1.4%; kinase still bound, per cent of control (STK17A (human)): 0.55%; kinase still bound, per cent of control (PLK3 (human)): 29%; kinase still bound, per cent of control [7]: 26%; kinase still bound, per cent of control (RIPK2 (human)): 25%; kinase still bound, per cent of control (DAPK2 (human)): 30%; kinase still bound, per cent of control [8]: 18%; kinase still bound, per cent of control (CLK2 (human)): 9.8%; kinase still bound, per cent of control (CLK1 (human)): 15%; kinase still bound, per cent of control (PIP5K1A (human)): 19%; kinase still bound, per cent of control (CLK4 (human)): 20%; kinase still bound, per cent of control (TAOK1 (human)): 34%; kinase still bound, per cent of control (PIM3 (human)): 3.2%; kinase still bound, per cent of control [9]: 20%; kinase still bound, per cent of control (GSK3A (human)): 17%; kinase still bound, per cent of control (MAP2K4 (human)): 33%; kinase still bound, per cent of control (STK17B (human)): 2.3%; kinase still bound, per cent of control (CAMKK1 (human)): 27%; kinase still bound, per cent of control (RIOK2 (human)): 9.2%; kinase still bound, per cent of control (CSNK2A2 (human)): 5.5%; kinase still bound, per cent of control (TTK (human)): 25%; kinase still bound, per cent of control (PIM1 (human) [10]): 8.3%; IC50 (PIM2 (human) [11]): 504 nM; IC50 (PIM1 (human) [12]): > 1110 nM

Source: the kinase profiling compilation of Christmann-Franck et al. (2016)
